One compound from patent publication US20230391868A1, “COMPOSITIONS FOR AND METHODS OF TREATING CANCER” (The George Washington University, priority 2022, published 2023) can be followed below.

One assay deals with mouse CD47 promoter. Description: CD47-luciferase reporter assay in SM1 melanoma cells. The format is cell-based. The following applies: SM1 transfected with CD47-luciferase reporter; NextA at different concentrations (FIG. 3D). Here is the method:
The mouse CD47 or SIRPα promoters were cloned into a promoterless pGL4.20[luc2/puro] vector using Genentech's cloning services (San Francisco, CA, USA). Vectors were transfected into SM1 and B16 melanoma cells using Lipofectamine 3000 (L3000008, ThermoFisher) and transfected cells were selected using puromycin. A31A7 macrophages were transiently transfected using jetOPTIMUS DNA transfection reagent (Polyplus, NY, USA). Luminescence was measured using the Luciferase Assay System (E4550, Promega) in a SpectraMax i3× Multi-Mode Microplate Reader (Molecular Devices).
Furthermore, to investigate whether HDAC6 controls CD47 expression at the transcriptional level, the mouse CD47 promoter was cloned into a promoterless pGL4.20[luc2/puro] vector. SM1 melanoma cells were transfected with the CD47-luciferase reporter vector and stimulated with IFNγ in the absence or presence of NextA at different concentrations and measured luminescence. Treatment with NextA repressed IFNγ-mediated upregulation of Cd47 (FIG. 3D).

For a further assay, the system named is SM1 cells. In words: Phagocytosis kinetics by live cell imaging. The class given is cell-based, mouse. Here is the method:
After co-culture, slides were fixed in 4% paraformaldehyde. Slides were incubated overnight with primary anti-GFP antibody (Cell Signaling, 2956) at 4° C. Slides were incubated with goat anti-rabbit IgG conjugated to Alexa Fluor 488 (A11008, ThermoFisher). Slides were mounted using VECTASHIELD Antifade Mounting Medium with DAPI (H-1200-10, Vector Laboratories, Burlingame, CA). Slides were imaged using a Zeiss 710 confocal microscope. Phagocytosis was quantified using Fiji by Image J, and the percentage of phagocytosis was calculated by dividing the number of GFP+ macrophages containing red dye in their vesicles out of total GFP+ macrophages. Live imaging was performed following a similar protocol and images were acquired through ImageXpress Pico Automated Cell Imaging System (Molecular Devices, San Jose, CA, USA).
To assess the phagocytosis kinetics in those groups, live cell imaging was performed and phagocytosis was tracked for 4 hr. after the macrophages and SM1 cells were co-cultured for an hour. Images were acquired every four minutes thereafter.

The test system of the next assay is B16 melanoma cells. Description: Cd47 mRNA upon IFNγ stimulation in B16 cells. The class given is cell-based, mouse. As to conditions: IFNγ for 12 hours. Here is the method: qRT-PCR: Total RNA was extracted from cells using the Trizol reagent according to manufacturer's instructions (ThermoFisher Scientific, 15596018). Samples were then processed immediately or stored at −80° C. RNA was quantified using a NanoDrop One Spectrophotometer (ThermoFisher Scientific). The 260/280 ratios were routinely over 1.8. Sample cDNA was produced using the iScript cDNA synthesis kit (Bio-Rad, 1708891). Target mRNA was quantified using MyIQ single-color real-time PCR detection system from Bio-Rad (Bio-Rad, Hercules, CA) and iQ SYBR green Supermix (Bio-Rad, 1708882). The following primers were synthesized by Invitrogen (Waltham, MA) with sequences designed by Origene (Rockville, MD): mouse R-actin (MP200232), mouse Nos2 (MP208933), mouse MRC1 (MP207800), human R-actin (HP204660), human IL-1β (HP200544), human MRC1 (HP206121), human NOS2 (HP200591), human CD209 (HP214086), mouse SIRPα (MP215450), mouse LRP1 (MP207604), human LRP1 (HP206040), mouse MFGE8 (MP208190), human MFGE8 (HP225757), mouse CD36 (MP201923), human CD36 (HP200058), and mouse CD47 (MP201932). Primers for mouse ARG-1 (PPM31770C) and human SIRPα (QT01031051) were purchased from Qiagen (Hilden, Germany). […] Quantification is expressed in arbitrary units and target mRNA levels were normalized to R-actin expression.
Although the mechanism by which IFNγ drives CD47 upregulation is unclear, IFNγ expression correlates to CD47 expression in skin cutaneous melanoma (Ye Z H, et al. (2021) Transl. Oncol. 14:101162). The kinetics of Cd47 mRNA in SM1 and B16 cells upon IFNγ stimulation (100 ng/mL) were evaluated and these mouse melanoma models were determined to have different kinetics (FIG. 9A-FIG. 9B). It was determined that 12 hours was a time point for both models to sustain the IFNγ-mediated upregulation. In FIG. 9B, the role of HDAC6 inhibitors NextA and Tubastatin A in abrogating Cd47 upregulation upon stimulation with IFNγ for 12 hours was evaluated.

In the next assay the test system is WM1361A melanoma cells. Description: CD47 gene expression upon IFNγ in WM1361A cells. The format is cell-based, human. The following applies: NextA 2.5 μM, 5 μM, and 10 μM, 12 hr post-stimulation (FIG. 3K). Here is the method:
qRT-PCR: Total RNA was extracted from cells using the Trizol reagent according to manufacturer's instructions (ThermoFisher Scientific, 15596018). Samples were then processed immediately or stored at −80° C. RNA was quantified using a NanoDrop One Spectrophotometer (ThermoFisher Scientific). The 260/280 ratios were routinely over 1.8. Sample cDNA was produced using the iScript cDNA synthesis kit (Bio-Rad, 1708891). Target mRNA was quantified using MyIQ single-color real-time PCR detection system from Bio-Rad (Bio-Rad, Hercules, CA) and iQ SYBR green Supermix (Bio-Rad, 1708882). […] Quantification is expressed in arbitrary units and target mRNA levels were normalized to R-actin expression.
This phenomenon was further examined in human melanoma cell lines to test the translational application of the results obtained using mouse models. […] Furthermore, the effects of HDAC6 KD on IFNγ-driven CD47 upregulation was analyzed. […] The effects of pharmacological inhibition of HDAC6 in other human melanoma cell lines (WM1361A and WM793) were also assessed. […]

For `CCCCN(Cc1ccc(C(=O)NO)cc1)C(=O)Nc1ccccc1` [NextA, Nexturastat A], the “IFNγ-mediated upregulation of Cd47 (luminescence)” value in the assay on mouse CD47 promoter is reported as “repressed”. Besides, the maximum phagocytosis reached result in the assay with SM1 cells (M1 NextA treated macrophages, IgG control group (FIG. 4L)) is “approximately 20%”. The “phagocytosis rate over time” value with SM1 cells (M1 macrophages with SM1 cells, tracked for 4 hr (FIG. 4L)) was “steady increase in phagocytosis over time”. Further, in the assay on B16 melanoma cells, the “IFNγ-driven Cd47 upregulation at the transcriptional level” value is “repressed these effects”. For the same compound, the “IFNγ-driven CD47 upregulation” value in the assay on WM1361A melanoma cells is “prevented”.
